Read-outs that look alike come from different tables or passages of the source.
B1: SsoPox 6: SsoPox variant R2K/S10E/S13P/K14R/V91I/L107N, SEQ ID NO:12 (protein)
chain: MKIPLVGKDEIEPRDIGFTLIHEHLRVFSEAVRQQWPHLYNEDEEFRNAVNEVKRAMQFGVKTIVDPTVMGLGRDIRFMEKVVKATGINLIAGTGIYIYIDLPFYFNNRSIDEIADLFIHDIKEGIQGTLNKAGFVKIAADEPGITKDVEKVIRAAAIANKETKVPIITHSNAHNNTGLEQQRILTEEGVDPGKILIGHLGDTDNIDYIKKIADKGSFIGLDRYGLDLFLPVDKRNETTLRLIKDGYSDKIMISHDYCCTIDWGTAKPEYKPKLAPRWSITLIFEDTIPFLKRNGVNEEVIATIFKENPKKFFS
modifications: SsoPox6 variant
B2: SsoPox 19: SsoPox variant with 19 node 55 mutations, SEQ ID NO:13 (protein)
chain: MKIPLVGKDEIEPREMGFTLIHEHLRVFSEAVRQQWPHLYNEDEEFRNAVNEVKTAMSYGVKTIVDPTVMGLGRDIRFMEKVVKATGINVIAATGIYIYTDLPFYFNNRSIDEIADLFIHDIKEGIQGTNNKAGFVKVAADEPGITKDVEKVIRAAAIAHKETKVPIITHSNAHNNTGLEQQRILMEEGVDPGKILIGHLGDTDNIDYIKKIADKGSFIGLDRYGLDLFLPVDKRNETTLKLIKDGYSDKIMISHDYCCTIDWGTAKPEYKPKLAPRWSITLIFEDTIPFLKRNGVNEEVIATIFKENPKKFFS
modifications: SsoPox19 variant

Assays:
[1] = system: Geobacillus caldoxylosilyticus lactonase GcL, wild type, SEQ ID NO: 1; conditions: Table 4, substrates marked *; Data from^17; cited from earlier work
[2] = system: Geobacillus caldoxylosilyticus GcL (SEQ ID NO: 1) variant GcL 4 (C147S/H178D/L183E/M244A); assay: Lactonase assay of variant GcL 4; format: biochemical; conditions: GcL 4, Table 6
Procedure: (§1) Kinetic measurements. The determination of GcL catalytic efficiency was performed by using a microplate reader (Synergy HTX, BioTek, USA) and the software Gen5.1 over a range of substrates (FIG. 2). The reactions were operate in a 96-well plate at a path length of 5.8 mm for a 200 μl reaction volume at room temperature. The catalytic parameters were achieved by fitting the data to Michaelis-Menten equation with the Graph-Pad Prism 5 software. When, Vmax was not reached, the catalytic efficiency was determined by fitting the linear part of Michaelis-Menten plot to a linear regression using Graph-Pad Prism 5.
(§2) Lactonase assay. The AHL lactonolysis consisting in the opening of the lactone ring generates a proton, and leads to an acidification of the media. This property allowed the characterization of the lactonases by using a pH indicator assay. To perform the experiment 5 μl of enzyme were added to a solution containing 10 μl of substrates at various concentrations and 185 μl of lactonase buffer (2.5 mM Bicine pH 8.3, 150 mM NaCl, 0.2 mM CoCl2, 0.2 mM cresol purple, 0.5% DMSO). This assay was performed at 25° C. and the time course of the lactones hydrolysis was recorded at 577 nm. The characterization of the enzyme was proceeding against a large panel of AHLs: C4-AHL, C6-AHL, C8-AHL, C10-AHL, 3-oxo-C8-AHL and against γ-Butyrolactone, γ-Heptalactone, γ-Nonalactone, γ-Decanolactone, δ-Valerolactone, δ-Octanolactone, δ-Nonalactone, δ-Decalactone, ε-Caprolactone, ε-Decalactone, Whiskey lactone.
We determined the ability of these two variants to hydrolyze a wide range of lactones as substrates, using the assay described in the previous chapter. GcL 4 was assayed against substrates C4 AHIL, C8 AHIL, 3-oxo-C8 AHL, 3-oxo-C12 AHL, γ-Butyrolactone, γ-Nonalactone, γ-Decanolactone, δ-Valerolactone, δ-Octanolactone, δ-Decalactone, ε-Caprolactone, ε-Decalactone and Whiskey Lactone, while GcL […] was assayed against C4 AHL, C8 AHL, 3-oxo-C8 AHL, 3-oxo-C12 AHIL, γ-Butyrolactone, γ-Heptalactone, γ-Nonalactone, γ-Decanolactone, δ-Valerolactone, δ-Nonalactone, δ-Decalactone, ε-Caprolactone, ε-Decalactone and Whiskey Lactone (Table 6).

[3] = system: Geobacillus caldoxylosilyticus lactonase GcL, wild type, SEQ ID NO: 1; assay: Lactonase assay (pH indicator, cresol purple) of GcL wt; format: biochemical; conditions: 25° C., pH 8.3; Table 4, substrates without asterisk
Procedure: as §1, §2

[4] = system: corrosion tubercles on steel coupons; assay: Biocorrosion of coated steel coupons in Duluth-Superior Harbor water, 8 weeks; design: concentration or dose not given beside the values; conditions: silica gel coating, two months in DSH water
Procedure: The steel coupons were washed with soap water, lightly brushed for a few seconds with a test tube brush, and then rinsed with Milli-Q water to remove any loose material. Each coupon was designated with a unique number and weighed before being randomly assigned to a specific experimental treatment.
Each compound or enzyme was added to 5 ml of the silica gel matrix to develop different coating treatments. These coatings were applied by dipping coupons into the appropriate gel mixture for 1 minute, and then the coating on the coupon surface was air-dried at room temperature for 2 hours.
Six treatments and three controls were investigated for corrosion rate and changes in bacterial communities (Table 10). Each treatment or control contained three replicate steel coupons. After the triplicate steel coupons were coated with each biochemical, enzyme or bacterial treatment, they were incubated in experimental microcosms constructed from 10-gallon glass aquaria (Aqueon Glass, 50.8 cm×25.4 cm×30.5 cm) (FIG. 24). Each microcosm was equipped with an aquarium pump (Aquarium Systems Mini-Jet 404) to constantly circulate the water (˜2 L hr−1), and covered with a piece of acrylic with one corner cut out to allow gas exchange. The coupons were hold with plastic holders and immersed in water taken from the DSH for 8 weeks and then recovered for analyses.
The coupons in each treatment was photographed by the end of the experiment. Biocorrosion was evaluated by the number and coverage of corrosion tubercles, and also by imaging of coupon surfaces with an environmental scanning electron microscope (ESEM). The coupon images were captured with DSLR camera immediately after being removed from the harbor water, and then tubercle numbers and total area in digital images were measured using the analyze menu within ImageJ software (NIH, Bethesda, Md., USA). Surface roughness measurements were also made after the exposed coupons were cleaned with ASTM G1-90 iron and steel chemical cleaning procedure (2 min in 37% HCl, 50 g/L SnCl2). A Hitachi TM-3030 ESEM was used to view details of the cleaned coupon surface and the 3D-View software was used to generate surface roughness measurements (SRa). Statistics analysis (T-tests) of the tubercle numbers, coverage and surface roughness were performed using Microsoft Excel software.

[5] = system: Geobacillus caldoxylosilyticus GcL (SEQ ID NO: 1) variant GcL 14 (Q41P/S66A/S81A/T91S/R111K/F141/A144T/C147S/V1751/H178D/I182L/L183E/M244A/N245K); assay: Lactonase assay of variant GcL 14; format: biochemical; conditions: GcL 14, Table 6
[6] = Enzymatic characterization of SsoPox 6 and SsoPox 19; format: biochemical; conditions: esters, lactones and phosphotriesters; compared with wt
From the text: We determined the ability of these two variants to hydrolyze a wide range of substrates, including esters, lactones and phosphotriesters (FIG. 23).

[7] = Paraoxonase activity of SsoPox variants after incubation at 80° C.; format: physicochemical; conditions: compared with wt enzyme and SsoPox W263I

Row | Molecule | Km [2] [µM] | kcat [2] [s⁻¹] | Km [3] [µM] | kcat [3] [s⁻¹] | Km [5] [µM] | kcat [5] [s⁻¹] | also measured
1 | CCCCCCCCCC(=O)NC1CCOC1=O (stereo not drawn) [C10-AHL] |  |  |  |  |  |  | Km [1]: 1.45 ± 0.47 µM; kcat [1]: 5.48 ± 0.37 s⁻¹
2 | CCCC1CCCC(=O)O1 (stereo not drawn) [δ-Octanolactone] | 1.92 ± 0.54 | 22.01 ± 1.17 | 18.3 ± 7 | 12.58 ± 0.85 |  |  | 
3 | [Mg+2].[O-][O-] [magnesium peroxide] |  |  |  |  |  |  | reduction of the number (formation) of corrosion tubercles [4]: 36%
4 | O=C1CCCCCO1 [ε-Caprolactone] | 1.3 ± 0.49 | 12.63 ± 0.95 | 10.6 ± 3.2 | 8.79 ± 0.43 | 2.49 ± 0.67 | 23.74 ± 1.26 | 
5 | CCCCC1CCCC(=O)O1 (stereo not drawn) [δ-Nonalactone] |  |  | 8.05 ± 2.5 | 2.01 ± 0.14 | 9.09 ± 2.2 | 23.61 ± 1.40 | 
6 | CCCCCC(=O)N[C@H]1CCOC1=O [C6-AHL] |  |  |  |  |  |  | Km [1]: 7.97 ± 1.89 µM; kcat [1]: 8.95 ± 0.48 s⁻¹
7 | CCCC1CCC(=O)O1 (stereo not drawn) [γ-Heptalactone] |  |  | 2.01 ± 0.71 | 1.77 ± 0.06 | 2.77 ± 0.53 | 20.95 ± 0.93 | 
8 | CCCCCCC1CCC(=O)O1 (stereo not drawn) [γ-Decanolactone] | 1.31 ± 0.28 | 22.24 ± 1.10 | 7.14 ± 1.03 | 2.69 ± 0.11 | 0.32 ± 0.14 | 13.7 ± 0.73 | 
9 | B1 |  |  |  |  |  |  | activity levels [6]: extremely similar to those of the wt enzyme; paraoxon hydrolysis after incubation of different times at 80° C. [7]: withstanding better the incubation at 80 °C than the wt enzyme and SsoPox W263I
10 | B2 |  |  |  |  |  |  | activity levels [6]: extremely similar to those of the wt enzyme; paraoxon hydrolysis after incubation of different times at 80° C. [7]: withstanding better the incubation at 80 °C than the wt enzyme and SsoPox W263I
